The values below come from US20090203697A1, “HETEROCYCLIC TYPE CINNAMIDE DERIVATIVE” (priority 2006, published 2009).

The structures appear in SMILES notation.

The experiment relates to Aβ42 production. As to the kind of experiment: Quantification of Aβ peptide in neuronal culture from rat fetus brain (Aβ ELISA). The class given is cell-based. Conditions: 72 h; rat primary neuronal culture (cerebral cortex, embryonic day 18 Wistar rats); medium collected three days after addition of the compound; Aβx-42 ELISA; read-out: Aβ42 production reducing effect IC50. As to the method: Quantification of Aβ Peptide in Neuronal Culture from Rat Fetus Brain
(1) Rat Primary Neuronal Culture
Primary neuronal cultures were prepared from the cerebral cortex of embryonic day 18 Wistar rats (Charles River Japan, Yokohama, Japan). Specifically, the embryos were aseptically removed from pregnant rats under ether anesthesia. The brain was isolated from the embryo and immersed in an ice-cold L-15 medium (such as Invitrogen Corp. Cat #11415-064, Carlsbad, Calif., USA, or SIGMA L1518). The cerebral cortex was collected from the isolated brain under a stereoscopic microscope. The cerebral cortex fragments collected were enzymatically treated in an enzyme solution containing 0.25% trypsin (Invitrogen Corp. Cat #15050-065, Carlsbad, Calif., USA) and 0.01% DNase (Sigma D5025, St. Louis, Mo., USA) at 37° C. for 30 minutes to disperse the cells. Here, the enzymatic reaction was stopped by adding inactivated horse serum to the solution. The enzymatically treated solution was centrifuged at 1,500 rpm for five minutes to remove the supernatant. 5 to 10 ml of a medium was added to the resulting cell mass. Neurobasal medium (Invitrogen Corp. Cat #21103-049, Carlsbad, Calif., USA) supplemented with 2% B27 supplement (Invitrogen Corp. Cat #17504-044, Carlsbad, Calif., USA), 25 μM 2-mercaptoethanol (2-ME, WAKO Cat #139-06861, Osaka, Japan), 0.5 mM L-glutamine (Invitrogen Corp. Cat #25030-0817 Carlsbad, Calif., USA), and Antibiotics-Antimycotics (Invitrogen Corp. Cat #15240-062, Carlsbad, Calif., USA) was used as the medium (Neurobasal/B27/2-ME). However, the above Neurobasal medium not supplemented with 2-ME (Neurobasal/B27) was used for the assay. The cells were redispersed by mild pipetting of the cell mass to which the medium was added. The cell dispersion was filtered through a 40-μm nylon mesh (Cell Strainer, Cat #35-2340, Becton Dickinson Labware, Franklin Lakes, N.J., USA) to remove the remaining cell mass, and thus a neuronal cell suspension was obtained. The neuronal cell suspension was diluted with the medium and then plated in a volume of 100 μl/well at an initial cell density of 5×10^5 cells/cm^2 in a 96-well polystyrene culture plate pre-coated with poly-L or D-lysine (Falcon Cat #35-3075, Becton Dickinson Labware, Franklin Lakes, N.J., USA coated with poly-L-lysine using the method shown below, or BIOCOAT™ cell environments Poly-D-lysine cell ware 96-well plate, Cat #35-6461, Becton Dickinson Labware, Franklin Lakes, N.J., USA). Poly-L-lysine coating was carried out as follows. 100 μg/ml of a poly-L-lysine (SIGMA P2636, St. Louis, Mo., USA) solution was aseptically prepared with a 0.15 M borate buffer. (pH 8.5). […] of the solution was added to the 96-well polystyrene culture plate and incubated at room temperature for one or more hours or at 4° C. overnight or longer. The coated 96-well polystyrene culture plate was washed with sterile water four or more times, and then dried or rinsed with, for example, sterile PBS or medium, and used for cell plating. The plated cells were cultured in the culture plate at 37° C. in 5% CO2-95% air for one day. Then, the total amount of the medium was replaced with a fresh Neurobasal™/B27/2-ME medium, and then the cells were cultured for further three days.
The drug was added to the culture plate on Day 4 of culture as follows. The total amount of the medium was removed from the wells, and 180 μl/well of Neurobasal medium not containing 2-ME and containing 2% B-27 (Neurobasal/B27) was added thereto. A solution of the test compound in dimethyl sulfoxide (hereinafter abbreviated as DMSO) was diluted with Neurobasal/B27 to a concentration 10-fold higher than the final concentration. 20 μl/well of the dilution was added to and sufficiently mixed with the medium. The final DMSO concentration was 1% or less. Only DMSO was added to the control group.
The cells were cultured for three days after addition of the compound, and the total amount of the medium was collected. […]
A general note: In an ELISA, binding on a coated surface is turned into a signal by an enzyme label.
With `COc1cc(/C=C2\O[C@@H](C)CN([C@H](c3cc(F)c(F)c(F)c3)[C@@H](C)O)C2=O)ccc1-n1cnc(C)n1` [Example 18, (Z)-(6S)-4-[(1R,2R)-2-hydroxy-1-(3,4,5-trifluorophenyl)propyl]-2-[1-[3-methoxy-4-(3-methyl[1,2,4]triazol-1-yl)phenyl]methylidene]-6-methylmorpholin-3-one], the IC50 (as a rule, the midpoint of a concentration-inhibition curve) amounted to 160 nM.
Then `COc1cc(/C=C2\O[C@@H](C)CN([C@H](c3ccc(F)cc3)[C@@H](C)O)C2=O)ccc1-n1cnc(C)n1` [Example 24, (6S)-(Z)-4-[(1R,2R)-1-(4-fluorophenyl)-2-hydroxypropyl]-2-[1-[3-methoxy-4-(3-methyl[1,2,4]triazol-1-yl)phenyl]methylidene]-6-methylmorpholin-3-one], with 290 nM; and `COc1cc(/C=C2\CC(C)(C)CN([C@@H](C)c3ccc(F)cc3)C2=O)ccc1-n1cnc(C)n1` [Example 27, (E)-1-[(S)-1-(4-fluorophenyl)ethyl]-3-[1-[3-methoxy-4-(3-methyl[1,2,4]triazol-1-yl)phenyl]methylidene]-5,5-dimethylpiperidin-2-one], with 270 nM.
Then `COc1cc(/C=C2\CC[C@H]3CCC[C@@H](c4ccc(F)cc4)N3C2=O)ccc1-n1cnc(C)n1` [Example 28, (E)-(6S,9aR)-6-(4-fluorophenyl)-3-{1-[3-methoxy-4-(3-methyl[1,2,4]triazol-1-yl)phenyl]methylidene}octahydroquinolizin-4-one], with 440 nM; and `COc1cc(/C=C2\CCCN([C@H](c3cc(F)c(F)c(F)c3)[C@@H](C)O)C2=O)ccc1-n1cnc(C)n1` [Example 21, (E)-1-[(1R,2R)-2-hydroxy-1-(3,4,5-trifluorophenyl)propyl]-3-[1-[3-methoxy-4-(3-methyl[1,2,4]triazol-1-yl)phenyl]methylidene]piperidin-2-one], with 60 nM.
With `COc1cc(/C=C2\CCCN([C@@H](C)c3cc(F)c(F)c(F)c3)C2=O)ccc1-n1cnc(C)n1` [Example 6, (E)-3-[1-[3-methoxy-4-(3-methyl[1,2,4]triazol-1-yl)phenyl]methylidene]-1-[(S)-1-(3,4,5-trifluorophenyl)ethyl]piperidin-2-one] the figure was 320 nM; with `COc1cc(/C=C2\O[C@@H](C)CN(C(C)(C)c3ccc(F)cc3)C2=O)ccc1-n1cnc(C)n1` [Example 17, (Z)-(6S)-4-[1-(4-fluorophenyl)-1-methylethyl]-2-[1-[3-methoxy-4-(3-methyl[1,2,4]triazol-1-yl)phenyl]methylidene]-6-methylmorpholin-3-one], 180 nM; with `COc1cc(/C=C2\CC[C@H]3CC[C@@H](c4ccc(F)c(F)c4)N3C2=O)ccc1-n1cnc(C)n1` [Example 26, (E)-(3S,8aS)-3-(3,4-difluorophenyl)-6-[3-methoxy-4-(3-methyl[1,2,4]triazol-1-yl)benzylidene]hexahydroindolizin-5-one], 380 nM.
Consider `COc1cc(/C=C2\OC(C)(C)CN([C@H](c3cc(F)c(F)c(F)c3)[C@@H](C)O)C2=O)ccc1-n1cnc(C)n1` [Example 19, (Z)-4-[(1R,2R)-2-hydroxy-1-(3,4,5-trifluorophenyl)propyl]-2-[1-[3-methoxy-4-(3-methyl[1,2,4]triazol-1-yl)phenyl]methylidene]-6,6-dimethylmorpholin-3-one], for which the IC50 came to 150 nM.
With `COc1cc(/C=C2\CCCN([C@H](c3ccc(F)cc3)[C@@H](C)O)C2=O)ccc1-n1cnc(C)n1` [Example 22, (E)-1-[(1R,2R)-1-(4-fluorophenyl)-2-hydroxypropyl]-3-{1-[3-methoxy-4-(3-methyl[1,2,4]triazol-1-yl)phenyl]methylidene}piperidin-2-one] the figure was 50 nM.
With `COc1cc(/C=C2\OCCN([C@H](c3cc(F)c(F)c(F)c3)[C@@H](C)O)C2=O)ccc1-n1cnc(C)n1` [Example 20, (Z)-4-[(1R,2R)-2-hydroxy-1-(3,4,5-trifluorophenyl)propyl]-2-[1-[3-methoxy-4-(3-methyl[1,2,4]triazol-1-yl)phenyl]methylidene]morpholin-3-one] the figure was 210 nM.
`COc1cc(/C=C2\OC(C)(C)CN([C@H](c3ccc(F)cc3)[C@@H](C)O)C2=O)ccc1-n1cnc(C)n1` [Example 23, (Z)-4-[(1R,2R)-1-(4-fluorophenyl)-2-hydroxypropyl]-2-[1-[3-methoxy-4-(3-methyl[1,2,4]triazol-1-yl)phenyl]methylidene]-6,6-dimethylmorpholin-3-one]: the IC50 stood at 400 nM.
